In the supplement of paper PMC10307832:

How the values were obtained:
Bleomycin + Trametinib = compound: CC1=C(N=C(N=C1N)[C@H](CC(=O)N)NC[C@@H](C(=O)N)N)C(=O)N[C@@H]([C@H](C2=CN=CN2)OC3C(C(C(C(O3)CO)O)O)OC4C(C(C(C(O4)CO)O)OC(=O)N)O)C(=O)N[C@H](C)[C@H]([C@H](C)C(=O)N[C@@H]([C@@H](C)O)C(=O)NCCC5=NC(=CS5)C6=NC(=CS6)C(=O)NCCC[S+](C)C)O [Bleomycin] + CC(=O)Nc1cccc(-n2c(=O)n(C3CC3)c(=O)c3c(Nc4ccc(I)cc4F)n(C)c(=O)c(C)c32)c1 [Trametinib] (partner 0.02 µM); assay: relative viability (nuclei count vs DMSO), 5 days (fraction); higher = more cells survive; settings: main component drawn
In short: (§1)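 After 5 days of treatment, lung cancer cells in 1536-well plates were fixed and stained in a single step (final 0.05% Triton X-100, 1% formaldehyde, 1 ug/ml Hoechst) and their nuclei counted on 4× images. Treatment had been applied by pin tool the day after seeding as one drug alone or as a fixed anchor-drug dose with five library-drug doses (not always all listed) in √10 steps. Relative viability is the nuclei count of treated wells divided by that of vehicle wells, and values are medians of duplicate plates.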

Bleomycin + AZD7762 = compound: CC1=C(N=C(N=C1N)[C@H](CC(=O)N)NC[C@@H](C(=O)N)N)C(=O)N[C@@H]([C@H](C2=CN=CN2)OC3C(C(C(C(O3)CO)O)O)OC4C(C(C(C(O4)CO)O)OC(=O)N)O)C(=O)N[C@H](C)[C@H]([C@H](C)C(=O)N[C@@H]([C@@H](C)O)C(=O)NCCC5=NC(=CS5)C6=NC(=CS6)C(=O)NCCC[S+](C)C)O [Bleomycin] + NC(=O)Nc1cc(-c2cccc(F)c2)sc1C(=O)N[C@H]1CCCNC1 [AZD7762] (partner 0.2 µM); assay: as above; settings: main component drawn
In short: as §1

Cell Line	relative viability (Bleomycin + Trametinib; first compound 0.01 µM)	relative viability (Bleomycin + Trametinib; first compound 0.03162 µM)	relative viability (Bleomycin + Trametinib; first compound 0.1 µM)	relative viability (Bleomycin + Trametinib; first compound 0.3162 µM)	relative viability (Bleomycin + Trametinib; first compound 1 µM)	relative viability (Bleomycin + AZD7762; first compound 0.01 µM)	relative viability (Bleomycin + AZD7762; first compound 0.03162 µM)	relative viability (Bleomycin + AZD7762; first compound 0.1 µM)	relative viability (Bleomycin + AZD7762; first compound 0.3162 µM)	relative viability (Bleomycin + AZD7762; first compound 1 µM)
NCI-H3122	0.257	0.247	0.231	0.185	0.187	0.972	0.991	0.966	0.379	0.33
PC-3 [JPC-3]	0.68	0.722	0.617	0.449	0.433	0.727	0.691	0.768	0.513	0.428
PC-14	0.243	0.205	0.133	0.0541	0.0419	0.254	0.347	0.187	0.0884	0.0848
RERF-LC-KJ	0.678	0.563	0.492	0.272	0.229	0.905	0.848	0.492	0.278	0.179
SW 900	0.858	0.561	0.453	0.259	0.197	0.525	0.591	0.392	0.264	0.24
